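Each compound was tested at five concentrations against cells in 96-well plates for 48 hours. GI50 is the concentration that inhibits growth by half. Definition used: TGI = concentration required for complete inhibition of growth.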
Legend:
Assay in all cases: NCI-60 cell line screen, 48 h
NCI-H522 lung = tested on: NCI-H522 lung
MOLT-4 leukemia = tested on: MOLT-4 leukemia
DU-145 prostate = tested on: DU-145 prostate
KM12 colon = tested on: KM12 colon
MDA-MB-435 = tested on: MDA-MB-435
TK-10 renal = tested on: TK-10 renal
SW-620 colon = tested on: SW-620 colon
MCF7 breast = tested on: MCF7 breast
HCC-2998 colon = tested on: HCC-2998 colon
HCT-15 colon = tested on: HCT-15 colon
UACC-257 melanoma = tested on: UACC-257 melanoma
T-47D breast = tested on: T-47D breast
OVCAR-5 ovarian = tested on: OVCAR-5 ovarian
SK-MEL-28 melanoma = tested on: SK-MEL-28 melanoma
HL-60(TB) leukemia = tested on: HL-60(TB) leukemia
A549 NSCLC = tested on: A549 NSCLC
CCRF-CEM leukemia = tested on: CCRF-CEM leukemia
U251 CNS = tested on: U251 CNS
SF-539 CNS = tested on: SF-539 CNS
BT-549 breast = tested on: BT-549 breast
SN12C renal = tested on: SN12C renal
COLO 205 colon = tested on: COLO 205 colon
SF-268 CNS = tested on: SF-268 CNS
HOP-92 NSCLC = tested on: HOP-92 NSCLC
SK-OV-3 ovarian = tested on: SK-OV-3 ovarian
OVCAR-8 ovarian = tested on: OVCAR-8 ovarian
SNB-19 CNS = tested on: SNB-19 CNS
K-562 leukemia = tested on: K-562 leukemia
786-0 renal = tested on: 786-0 renal
ACHN renal = tested on: ACHN renal
PC-3 prostate = tested on: PC-3 prostate
SR leukemia = tested on: SR leukemia
NCI-H23 lung = tested on: NCI-H23 lung
OVCAR-4 ovarian = tested on: OVCAR-4 ovarian
SK-MEL-5 melanoma = tested on: SK-MEL-5 melanoma
RXF 393 renal = tested on: RXF 393 renal
OVCAR-3 ovarian = tested on: OVCAR-3 ovarian
RPMI-8226 leukemia = tested on: RPMI-8226 leukemia
UO-31 renal = tested on: UO-31 renal
EKVX NSCLC = tested on: EKVX NSCLC
NCI-H460 lung = tested on: NCI-H460 lung
CAKI-1 renal = tested on: CAKI-1 renal
LOX IMVI melanoma = tested on: LOX IMVI melanoma
SK-MEL-2 melanoma = tested on: SK-MEL-2 melanoma
MDA-MB-231 breast = tested on: MDA-MB-231 breast
SNB-75 CNS = tested on: SNB-75 CNS
M14 melanoma = tested on: M14 melanoma
NCI/ADR-RES ovarian = tested on: NCI/ADR-RES ovarian
HCT-116 colon = tested on: HCT-116 colon
A498 renal = tested on: A498 renal
IGROV1 ovarian = tested on: IGROV1 ovarian
HOP-62 NSCLC = tested on: HOP-62 NSCLC
HS 578T breast = tested on: HS 578T breast
SF-295 CNS = tested on: SF-295 CNS
UACC-62 melanoma = tested on: UACC-62 melanoma

CN(C)CCNc1nc2ccccc2c2occc12 gave a GI50 (NCI-H522 lung) of 62.3 µM, a TGI (NCI-H522 lung) of over 100 µM and a GI50 (MOLT-4 leukemia) of 20.3 µM. For the same compound, the TGI (MOLT-4 leukemia) was over 100 µM, the GI50 (DU-145 prostate) was 32 µM and the TGI (DU-145 prostate) was over 100 µM. The GI50 (KM12 colon) was 51.7 µM, the TGI (KM12 colon) was over 100 µM and the GI50 (MDA-MB-435) was 54.5 µM. For the same compound, the TGI (MDA-MB-435) was over 100 µM, the GI50 (TK-10 renal) was 60.5 µM and the TGI (TK-10 renal) was over 100 µM. The GI50 (SW-620 colon) was 63.4 µM, the TGI (SW-620 colon) was over 100 µM and the GI50 (MCF7 breast) was 32.4 µM. For the same compound, the TGI (MCF7 breast) was over 100 µM, the GI50 (HCC-2998 colon) was 36 µM and the TGI (HCC-2998 colon) was 89.5 µM. It also gave a GI50 (HCT-15 colon) of 30.1 µM, a TGI (HCT-15 colon) of over 100 µM and a GI50 (UACC-257 melanoma) of 28.9 µM. It also gave a TGI (UACC-257 melanoma) of 68.2 µM, a GI50 (T-47D breast) of over 100 µM and a TGI (T-47D breast) of over 100 µM. For the same compound, the GI50 (OVCAR-5 ovarian) was 37.2 µM, the TGI (OVCAR-5 ovarian) was 88.4 µM and the GI50 (SK-MEL-28 melanoma) was 27 µM. It also gave a TGI (SK-MEL-28 melanoma) of over 100 µM, a GI50 (HL-60(TB) leukemia) of 49.6 µM and a TGI (HL-60(TB) leukemia) of over 100 µM. For the same compound, the GI50 (A549 NSCLC) was 44.7 µM, the TGI (A549 NSCLC) was over 100 µM and the GI50 (CCRF-CEM leukemia) was 20.9 µM. It also gave a TGI (CCRF-CEM leukemia) of over 100 µM, a GI50 (U251 CNS) of 45.3 µM and a TGI (U251 CNS) of over 100 µM. It also gave a GI50 (SF-539 CNS) of 35.9 µM, a TGI (SF-539 CNS) of 83.6 µM and a GI50 (BT-549 breast) of over 100 µM. For the same compound, the TGI (BT-549 breast) was over 100 µM, the GI50 (SN12C renal) was 27.7 µM and the TGI (SN12C renal) was 82.5 µM. For the same compound, the GI50 (COLO 205 colon) was 25.2 µM, the TGI (COLO 205 colon) was over 100 µM and the GI50 (SF-268 CNS) was 46.6 µM. It also gave a TGI (SF-268 CNS) of over 100 µM, a GI50 (HOP-92 NSCLC) of 54.1 µM and a TGI (HOP-92 NSCLC) of over 100 µM. The GI50 (SK-OV-3 ovarian) was 85.1 µM, the TGI (SK-OV-3 ovarian) was over 100 µM and the GI50 (OVCAR-8 ovarian) was 62.3 µM. The TGI (OVCAR-8 ovarian) was over 100 µM, the GI50 (SNB-19 CNS) was 71.7 µM and the TGI (SNB-19 CNS) was over 100 µM. It also gave a GI50 (K-562 leukemia) of 25.9 µM, a TGI (K-562 leukemia) of 98.9 µM and a GI50 (786-0 renal) of 62 µM. For the same compound, the TGI (786-0 renal) was over 100 µM, the GI50 (ACHN renal) was 28.2 µM and the TGI (ACHN renal) was 85.8 µM. It also gave a GI50 (PC-3 prostate) of 36 µM, a TGI (PC-3 prostate) of over 100 µM and a GI50 (SR leukemia) of 21.3 µM. It also gave a TGI (SR leukemia) of 54.4 µM, a GI50 (NCI-H23 lung) of 69.5 µM and a TGI (NCI-H23 lung) of over 100 µM. The GI50 (OVCAR-4 ovarian) was 26.3 µM, the TGI (OVCAR-4 ovarian) was 82.2 µM and the GI50 (SK-MEL-5 melanoma) was 14.5 µM. For the same compound, the TGI (SK-MEL-5 melanoma) was 32.2 µM, the GI50 (RXF 393 renal) was 31.6 µM and the TGI (RXF 393 renal) was 86.2 µM. The GI50 (OVCAR-3 ovarian) was 97.2 µM, the TGI (OVCAR-3 ovarian) was over 100 µM and the GI50 (RPMI-8226 leukemia) was 58 µM. For the same compound, the TGI (RPMI-8226 leukemia) was over 100 µM, the GI50 (UO-31 renal) was 26.1 µM and the TGI (UO-31 renal) was over 100 µM. It also gave a GI50 (EKVX NSCLC) of 59.5 µM, a TGI (EKVX NSCLC) of over 100 µM and a GI50 (NCI-H460 lung) of 31.7 µM. For the same compound, the TGI (NCI-H460 lung) was over 100 µM, the GI50 (CAKI-1 renal) was 52.7 µM and the TGI (CAKI-1 renal) was over 100 µM. It also gave a GI50 (LOX IMVI melanoma) of 19.1 µM, a TGI (LOX IMVI melanoma) of 42.8 µM and a GI50 (SK-MEL-2 melanoma) of 33.8 µM. The TGI (SK-MEL-2 melanoma) was over 100 µM, the GI50 (MDA-MB-231 breast) was 23.7 µM and the TGI (MDA-MB-231 breast) was 77.6 µM. The GI50 (SNB-75 CNS) was 11.8 µM, the TGI (SNB-75 CNS) was over 100 µM and the GI50 (M14 melanoma) was 28.8 µM. For the same compound, the TGI (M14 melanoma) was 68.5 µM, the GI50 (NCI/ADR-RES ovarian) was 51.8 µM and the TGI (NCI/ADR-RES ovarian) was over 100 µM. It also gave a GI50 (HCT-116 colon) of 34.1 µM, a TGI (HCT-116 colon) of over 100 µM and a GI50 (A498 renal) of 48.5 µM. The TGI (A498 renal) was 81.6 µM, the GI50 (IGROV1 ovarian) was 34.1 µM and the TGI (IGROV1 ovarian) was 89.6 µM. For the same compound, the GI50 (HOP-62 NSCLC) was 96.2 µM, the TGI (HOP-62 NSCLC) was over 100 µM and the GI50 (HS 578T breast) was 99.4 µM. For the same compound, the TGI (HS 578T breast) was over 100 µM, the GI50 (SF-295 CNS) was 60.2 µM and the TGI (SF-295 CNS) was over 100 µM. For the same compound, the GI50 (UACC-62 melanoma) was 16.6 µM and the TGI (UACC-62 melanoma) was 34.3 µM.

— PubChem BioAssay (NCI)
